Laboratory results from PMC7774954, “Interactomic affinity profiling by holdup assay: Acetylation and distal residues impact the PDZome-binding specificity of PTEN phosphatase” (PLoS ONE, 2020).
*1 amine or outer side, *2 acyl side, *3 side chain or, on linkers, in order; H or OH if unused. Where a SMILES comes first, the peptide text is derived from it. The star is where a group is joined. X1 = O=C(CCCC[C@@H]1SC[C@@H]2NC(=O)N[C@@H]21)NCCCOCCOCCOCCCN*; Suc = O=C(CCC(=O)[*:2])[*:1]

Experiments:
[1] = biological target: INADL-6 (Homo sapiens, UniProt Q8NI35); experiment: Holdup assay, INADL-6; type: binding
Sequence of INADL-6 (Q8NI35 whole entry): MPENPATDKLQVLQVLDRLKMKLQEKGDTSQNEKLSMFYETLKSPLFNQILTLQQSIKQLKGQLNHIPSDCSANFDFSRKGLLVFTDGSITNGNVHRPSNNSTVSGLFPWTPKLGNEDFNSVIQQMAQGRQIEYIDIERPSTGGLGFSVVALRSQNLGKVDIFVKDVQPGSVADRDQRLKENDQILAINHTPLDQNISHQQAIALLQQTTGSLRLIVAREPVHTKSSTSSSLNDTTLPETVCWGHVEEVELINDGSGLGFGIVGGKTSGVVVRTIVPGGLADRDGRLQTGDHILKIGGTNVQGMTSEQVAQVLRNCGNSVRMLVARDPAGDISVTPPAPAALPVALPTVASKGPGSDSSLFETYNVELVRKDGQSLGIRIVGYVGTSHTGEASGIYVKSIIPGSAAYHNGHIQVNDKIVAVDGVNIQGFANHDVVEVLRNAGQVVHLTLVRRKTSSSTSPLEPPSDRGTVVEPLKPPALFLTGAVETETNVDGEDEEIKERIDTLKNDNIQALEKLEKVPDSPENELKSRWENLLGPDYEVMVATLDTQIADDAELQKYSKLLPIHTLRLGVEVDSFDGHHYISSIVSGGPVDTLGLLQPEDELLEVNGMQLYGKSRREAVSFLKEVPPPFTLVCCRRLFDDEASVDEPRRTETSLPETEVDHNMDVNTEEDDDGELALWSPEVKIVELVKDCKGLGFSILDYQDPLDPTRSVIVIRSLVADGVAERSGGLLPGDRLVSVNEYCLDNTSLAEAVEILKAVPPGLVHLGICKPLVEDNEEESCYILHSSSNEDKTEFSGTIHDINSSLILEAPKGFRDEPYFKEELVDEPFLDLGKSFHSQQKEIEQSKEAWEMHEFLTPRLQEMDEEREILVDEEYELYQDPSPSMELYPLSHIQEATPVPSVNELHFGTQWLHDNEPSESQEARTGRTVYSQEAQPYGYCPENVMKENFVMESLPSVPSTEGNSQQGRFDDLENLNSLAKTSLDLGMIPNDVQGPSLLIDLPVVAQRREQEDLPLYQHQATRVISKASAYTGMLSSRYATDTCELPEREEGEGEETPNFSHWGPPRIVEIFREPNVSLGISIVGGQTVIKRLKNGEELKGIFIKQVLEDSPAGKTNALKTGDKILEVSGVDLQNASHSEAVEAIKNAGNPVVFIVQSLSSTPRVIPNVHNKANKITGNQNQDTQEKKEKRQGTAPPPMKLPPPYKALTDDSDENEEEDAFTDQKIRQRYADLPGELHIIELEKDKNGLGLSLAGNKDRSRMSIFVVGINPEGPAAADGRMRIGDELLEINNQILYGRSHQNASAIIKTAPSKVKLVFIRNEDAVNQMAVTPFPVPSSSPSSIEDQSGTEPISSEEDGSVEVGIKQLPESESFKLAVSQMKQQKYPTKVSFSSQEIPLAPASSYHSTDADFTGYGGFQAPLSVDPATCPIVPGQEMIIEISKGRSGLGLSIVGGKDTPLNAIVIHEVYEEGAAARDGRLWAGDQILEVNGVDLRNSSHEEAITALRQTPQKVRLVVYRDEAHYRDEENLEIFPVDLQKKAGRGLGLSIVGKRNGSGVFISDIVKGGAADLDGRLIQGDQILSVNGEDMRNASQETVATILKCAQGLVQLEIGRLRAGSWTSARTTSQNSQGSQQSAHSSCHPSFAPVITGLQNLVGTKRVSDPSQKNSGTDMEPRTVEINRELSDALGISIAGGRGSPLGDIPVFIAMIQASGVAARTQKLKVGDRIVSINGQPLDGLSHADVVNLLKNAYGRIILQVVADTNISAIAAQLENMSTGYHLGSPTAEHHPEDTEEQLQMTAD

[2] = biological target: T1, MAGI3-6 (Homo sapiens, UniProt Q5TCQ9); experiment: Holdup assay, MAGI3-6; type: binding
T1 sequence (Q5TCQ9 1-1481): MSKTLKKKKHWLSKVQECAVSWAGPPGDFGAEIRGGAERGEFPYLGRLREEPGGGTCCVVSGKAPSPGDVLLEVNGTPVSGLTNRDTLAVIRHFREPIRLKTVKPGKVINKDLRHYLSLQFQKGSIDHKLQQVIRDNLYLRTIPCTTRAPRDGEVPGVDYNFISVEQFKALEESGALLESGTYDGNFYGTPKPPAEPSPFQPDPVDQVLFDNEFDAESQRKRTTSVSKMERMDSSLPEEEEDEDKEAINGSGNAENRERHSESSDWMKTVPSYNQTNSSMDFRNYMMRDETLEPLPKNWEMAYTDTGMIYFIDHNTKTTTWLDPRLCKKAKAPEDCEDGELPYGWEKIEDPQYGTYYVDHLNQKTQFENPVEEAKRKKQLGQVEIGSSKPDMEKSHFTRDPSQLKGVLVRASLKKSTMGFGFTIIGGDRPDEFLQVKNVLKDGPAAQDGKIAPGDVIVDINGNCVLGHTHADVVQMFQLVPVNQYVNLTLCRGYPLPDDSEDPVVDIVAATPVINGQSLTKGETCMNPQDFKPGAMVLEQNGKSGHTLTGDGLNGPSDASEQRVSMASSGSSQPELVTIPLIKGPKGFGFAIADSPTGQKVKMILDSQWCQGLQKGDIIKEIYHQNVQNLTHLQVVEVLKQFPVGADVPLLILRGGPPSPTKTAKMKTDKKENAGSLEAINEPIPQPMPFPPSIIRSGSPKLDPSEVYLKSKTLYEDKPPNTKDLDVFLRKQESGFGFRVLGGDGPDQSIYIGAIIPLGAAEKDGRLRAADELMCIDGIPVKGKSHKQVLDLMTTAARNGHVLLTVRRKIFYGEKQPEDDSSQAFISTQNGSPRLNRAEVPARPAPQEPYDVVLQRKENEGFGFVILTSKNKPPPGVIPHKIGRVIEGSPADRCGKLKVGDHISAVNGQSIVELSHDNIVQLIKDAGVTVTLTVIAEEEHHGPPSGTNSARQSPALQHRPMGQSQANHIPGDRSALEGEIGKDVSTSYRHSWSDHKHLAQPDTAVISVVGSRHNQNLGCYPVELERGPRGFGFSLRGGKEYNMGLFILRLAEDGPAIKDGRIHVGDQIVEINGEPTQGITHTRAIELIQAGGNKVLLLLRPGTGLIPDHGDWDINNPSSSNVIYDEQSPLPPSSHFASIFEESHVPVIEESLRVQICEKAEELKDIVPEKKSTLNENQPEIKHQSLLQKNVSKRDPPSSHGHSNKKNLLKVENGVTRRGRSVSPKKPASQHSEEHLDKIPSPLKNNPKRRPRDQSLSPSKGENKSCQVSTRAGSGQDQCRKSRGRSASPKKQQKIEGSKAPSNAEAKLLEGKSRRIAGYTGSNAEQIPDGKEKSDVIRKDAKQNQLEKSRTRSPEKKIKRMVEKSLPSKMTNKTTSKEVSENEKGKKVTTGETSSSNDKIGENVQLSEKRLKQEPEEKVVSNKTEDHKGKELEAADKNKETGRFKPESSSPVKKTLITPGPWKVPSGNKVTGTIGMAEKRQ

[3] = system: MAGI1-6; experiment: Holdup assay, MAGI1-6; type: binding, human
[4] = system: DLG5-4; experiment: Holdup assay, DLG5-4; type: binding, human
[5] = system: INADL-9; experiment: Holdup assay, INADL-9; type: binding, human
[6] = system: LNX1-3; experiment: Holdup assay, LNX1-3; type: binding, human
[7] = system: INADL-2; experiment: Holdup assay, INADL-2; type: binding, human
[8] = system: GRIP1-6; experiment: Holdup assay, GRIP1-6; type: binding, human
[9] = system: GRIP1-1; experiment: Holdup assay, GRIP1-1; type: binding, human
[10] = biological target: MAGI1-5 (Homo sapiens, UniProt Q96QZ7); experiment: Holdup assay, MAGI1-5; type: binding
Sequence of MAGI1-5 (Q96QZ7 970-1066): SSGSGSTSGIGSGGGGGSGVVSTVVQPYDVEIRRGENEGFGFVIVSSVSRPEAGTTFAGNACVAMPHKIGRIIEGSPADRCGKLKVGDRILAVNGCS

[11] = system: DFNB31-2; experiment: Holdup assay, DFNB31-2; type: binding, human
[12] = biological target: LRRC7-1 (Homo sapiens, UniProt Q96NW7); experiment: Holdup assay, LRRC7-1; type: binding
Sequence of LRRC7-1 (Q96NW7 with tags, fused parts or gaps): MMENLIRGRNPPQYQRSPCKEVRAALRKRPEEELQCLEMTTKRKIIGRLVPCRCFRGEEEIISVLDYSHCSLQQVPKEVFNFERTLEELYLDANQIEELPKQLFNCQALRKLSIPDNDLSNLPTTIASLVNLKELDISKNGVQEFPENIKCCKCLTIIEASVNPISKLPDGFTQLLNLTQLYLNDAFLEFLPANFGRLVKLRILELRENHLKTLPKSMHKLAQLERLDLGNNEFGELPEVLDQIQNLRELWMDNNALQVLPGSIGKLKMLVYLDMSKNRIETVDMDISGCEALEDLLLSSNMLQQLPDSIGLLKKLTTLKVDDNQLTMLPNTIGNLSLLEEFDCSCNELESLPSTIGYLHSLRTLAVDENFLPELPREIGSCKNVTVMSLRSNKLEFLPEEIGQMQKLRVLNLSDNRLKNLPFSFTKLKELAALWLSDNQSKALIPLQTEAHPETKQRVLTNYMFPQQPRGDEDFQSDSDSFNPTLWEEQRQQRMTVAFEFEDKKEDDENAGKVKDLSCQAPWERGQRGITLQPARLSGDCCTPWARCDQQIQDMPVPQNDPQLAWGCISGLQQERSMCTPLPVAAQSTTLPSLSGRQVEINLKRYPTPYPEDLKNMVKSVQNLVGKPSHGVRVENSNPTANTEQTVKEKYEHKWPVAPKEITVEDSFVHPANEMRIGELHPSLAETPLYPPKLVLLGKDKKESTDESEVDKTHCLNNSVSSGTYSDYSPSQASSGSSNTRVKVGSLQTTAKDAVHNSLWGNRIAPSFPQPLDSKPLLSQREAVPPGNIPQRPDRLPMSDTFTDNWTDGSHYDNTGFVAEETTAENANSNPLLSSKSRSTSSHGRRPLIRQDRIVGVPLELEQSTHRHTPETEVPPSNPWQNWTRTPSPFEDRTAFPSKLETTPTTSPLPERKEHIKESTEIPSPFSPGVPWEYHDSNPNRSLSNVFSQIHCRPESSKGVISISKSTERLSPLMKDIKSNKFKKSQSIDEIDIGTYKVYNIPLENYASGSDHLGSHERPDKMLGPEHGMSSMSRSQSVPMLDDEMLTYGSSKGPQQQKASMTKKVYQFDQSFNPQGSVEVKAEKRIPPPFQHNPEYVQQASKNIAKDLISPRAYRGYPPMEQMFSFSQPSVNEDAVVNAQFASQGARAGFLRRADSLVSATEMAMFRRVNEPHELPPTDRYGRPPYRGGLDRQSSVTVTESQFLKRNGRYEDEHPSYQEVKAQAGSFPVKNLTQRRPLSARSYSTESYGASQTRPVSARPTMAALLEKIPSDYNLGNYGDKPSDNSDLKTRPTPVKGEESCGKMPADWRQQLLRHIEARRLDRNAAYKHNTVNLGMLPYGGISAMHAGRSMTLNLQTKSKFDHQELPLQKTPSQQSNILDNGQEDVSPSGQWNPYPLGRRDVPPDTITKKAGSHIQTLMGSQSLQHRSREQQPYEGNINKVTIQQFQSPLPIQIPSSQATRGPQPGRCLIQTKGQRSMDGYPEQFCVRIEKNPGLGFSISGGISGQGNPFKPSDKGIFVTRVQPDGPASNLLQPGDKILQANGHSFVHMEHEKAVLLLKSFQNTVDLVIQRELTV

[13] = biological target: DLG4-2 (Homo sapiens, UniProt P78352); experiment: Holdup assay, DLG4-2; type: binding
Sequence of DLG4-2 (P78352 160-246): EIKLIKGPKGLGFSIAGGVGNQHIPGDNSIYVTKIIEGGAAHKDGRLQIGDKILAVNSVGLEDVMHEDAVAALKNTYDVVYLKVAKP

[14] = biological target: GOPC-1 (Homo sapiens, UniProt Q9HD26); experiment: Holdup assay, GOPC-1; type: binding
[15] = system: MAGI3-3; experiment: Holdup assay, MAGI3-3; type: binding, human

SMILES	BI [1]	LogKD [1]	BI [2]	LogKD [2]	BI [3]	LogKD [3]	BI [4]	LogKD [4]	BI [5]	LogKD [5]	BI [6]	BI [7]	BI [8]	BI [10]	Kd [10]	BI [11]	BI [12]	BI [14]	Kd [14]	BI [15]	other results
CC[C@H](C)[C@H](NC(=O)[C@H](CCC(N)=O)NC(=O)[C@@H](NC(=O)[C@H](Cc1c[nH]cn1)NC(=O)[C@H](CCC(N)=O)NC(=O)[C@H](CC(=O)O)NC(=O)[C@H](CCC(=O)O)NC(=O)[C@H](CC(=O)O)NC(=O)CCC(=O)NCCCOCCOCCOCCCNC(=O)CCCC[C@@H]1SC[C@@H]2NC(=O)N[C@@H]21)[C@@H](C)O)C(=O)N[C@H](C(=O)N[C@@H](CCCCN)C(=O)N[C@H](C(=O)O)C(C)C)[C@@H](C)O [PTEN_11]	0.077	3.519	0.071	3.519	-0.04	3.519	-0.07	3.519	0.014	3.519	-0.02	0.007	0.065	0.536	27.6 µM	-0.03	0.078	0.26	93.8 µM	-0.099	LogKD [6]: 3.519; LogKD [7]: 3.519; LogKD [8]: 3.519; BI [9]: -0.021; LogKD [9]: 3.519; LogKD [11]: 3.519; LogKD [12]: 3.519; BI [13]: 0.124; LogKD [15]: 3.519
CC[C@H](C)[C@H](NC(=O)[C@H](CCC(N)=O)NC(=O)[C@@H](NC(=O)[C@H](Cc1c[nH]cn1)NC(=O)[C@H](CCC(N)=O)NC(=O)[C@H](CC(=O)O)NC(=O)[C@H](CCC(=O)O)NC(=O)[C@H](CC(=O)O)NC(=O)[C@H](Cc1ccccc1)NC(=O)[C@@H]1CCCN1C(=O)CCC(=O)NCCCOCCOCCOCCCNC(=O)CCCC[C@@H]1SC[C@@H]2NC(=O)N[C@@H]21)[C@@H](C)O)C(=O)N[C@H](C(=O)N[C@@H](CCCCN)C(=O)N[C@H](C(=O)O)C(C)C)[C@@H](C)O [PTEN_13] ({X1-Suc}-PFDEDQHTQITKV-OH)	0.044	3.826	0.044	3.826	0.072	–	-0.028	–	-0.062	–	0.016	0.043	0.004	0.274	42.1 µM	0.036	0.042	0.199	65.2 µM	-0.03	BI [9]: -0.079; LogKD [12]: 3.826; BI [13]: -0.004; LogKD [13]: 3.826
CC[C@H](C)[C@H](NC(=O)[C@H](CCC(N)=O)NC(=O)[C@@H](NC(=O)[C@H](Cc1c[nH]cn1)NC(=O)[C@H](CCC(N)=O)NC(=O)[C@H](CC(=O)O)NC(=O)[C@H](CCC(=O)O)NC(=O)[C@H](CC(=O)O)NC(=O)CCC(=O)NCCCOCCOCCOCCCNC(=O)CCCC[C@@H]1SC[C@@H]2NC(=O)N[C@@H]21)[C@@H](C)O)C(=O)N[C@H](C(=O)N[C@@H](CCCCNC(C)=O)C(=O)N[C@H](C(=O)O)C(C)C)[C@@H](C)O [PTEN_Ac]	0.316	–	0.251	–	0.096	3.605	-0.1	3.605	0.072	3.605	0.072	–	-0.056	0.647	13.9 µM	-0.091	-0.028	0.404	38.9 µM	-0.079	Kd [1]: 57.9 µM; Kd [2]: 80.6 µM; LogKD [6]: 3.605; LogKD [8]: 3.605; LogKD [11]: 3.605; LogKD [12]: 3.605; LogKD [15]: 3.605
CC[C@H](C)[C@H](NC(=O)[C@H](CCC(N)=O)NC(=O)[C@@H](NC(=O)[C@H](Cc1c[nH]cn1)NC(=O)[C@H](CCC(N)=O)NC(=O)[C@H](CC(=O)O)NC(=O)[C@H](CCC(=O)O)NC(=O)[C@H](CC(=O)O)NC(=O)CCC(=O)NCCCOCCOCCOCCCNC(=O)CCCC[C@@H]1SC[C@@H]2NC(=O)N[C@@H]21)[C@@H](C)O)C(=O)N[C@H](C(=O)N[C@@H](CCCNC(=N)N)C(=O)N[C@H](C(=O)O)C(C)C)[C@@H](C)O [PTEN_KR] ({X1-Suc}-DEDQHTQITRV-OH)	0.066	3.655	0.067	3.655	0.051	3.655	-0.107	3.655	0.068	3.655	–	0.064	0.038	0.619	13.9 µM	-0.046	0.14	0.45	28.4 µM	-0.043	LogKD [7]: 3.655; LogKD [8]: 3.655; BI [9]: -0.163; LogKD [9]: 3.655; LogKD [11]: 3.655; BI [13]: 0.284; Kd [13]: 60.2 µM; LogKD [15]: 3.655
